From ChEMBL document CHEMBL1138271, “Discovery of 5-substituted-6-chlorouracils as efficient inhibitors of human thymidine phosphorylase” (J Med Chem, 2007)

Assays:
Thymidine phosphorylase [1] = molecular target: T1, Thymidine phosphorylase (Homo sapiens, UniProt P19971); test: Inhibition of human placental thymidine phosphorylase
T1 sequence (P19971 whole entry): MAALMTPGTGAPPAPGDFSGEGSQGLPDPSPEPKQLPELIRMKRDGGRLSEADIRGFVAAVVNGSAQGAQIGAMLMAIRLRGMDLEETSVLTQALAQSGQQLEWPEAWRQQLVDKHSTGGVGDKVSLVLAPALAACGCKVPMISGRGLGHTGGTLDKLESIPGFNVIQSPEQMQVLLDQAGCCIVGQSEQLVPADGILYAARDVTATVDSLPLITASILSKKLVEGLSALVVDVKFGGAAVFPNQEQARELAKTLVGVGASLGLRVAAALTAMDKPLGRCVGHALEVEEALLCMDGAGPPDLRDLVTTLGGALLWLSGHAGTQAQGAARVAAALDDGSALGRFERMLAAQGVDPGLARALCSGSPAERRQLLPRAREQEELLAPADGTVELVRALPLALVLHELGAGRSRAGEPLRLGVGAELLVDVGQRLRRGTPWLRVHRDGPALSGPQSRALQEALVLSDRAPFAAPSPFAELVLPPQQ

Thymidine phosphorylase [2] = molecular target: T1, Thymidine phosphorylase; test: Inhibition of human recombinant thymidine phosphorylase expressed in V79 cells; type: cell-based
[3] = Acid dissociation constant, pKa of the compound; type: physicochemical

| SMILES | Ki (Thymidine phosphorylase [1]) [µM] | Ki (Thymidine phosphorylase [2]) [µM] | pKa [3] |
| --- | --- | --- | --- |
| CCc1c(Cl)[nH]c(=O)[nH]c1=O | > 20 | > 20 |  |
| O=c1[nH]c(Cl)c(C2=CCCC2)c(=O)[nH]1 |  |  | 5.8 |

The remaining lines, values ahead:

| Ki (Thymidine phosphorylase [1]) [µM] | Ki (Thymidine phosphorylase [2]) [µM] | pKa [3] | SMILES |
| --- | --- | --- | --- |
| > 20 | > 20 |  | O=c1[nH]c(N2CCCC2)c(-c2ccccc2)c(=O)[nH]1 |
| > 20 | > 20 |  | Cc1[nH]c(=O)[nH]c(=O)c1-c1ccccc1 |
| > 20 | > 20 |  | NCCNc1[nH]c(=O)[nH]c(=O)c1-c1ccccc1 |
